Assay results taken from PMC2941613 (Indian Journal of Pharmacology, 2010).

Columns and labels:
ob/ob mice = settings: 10 mg/kg p.o.
Procedure: The DPP-IV inhibitors were administered to overnight fasted ob/ob mice for the above stated period, followed by oral glucose challenge (2 g/kg). Blood samples collected at 0, 15, 30, 60, and 120 min after glucose load were processed as described earlier and blood glucose concentrations measured using Biochemical AutoAnalyzer, Dimension AR (Dade Behring, USA). AUC0-120 min were calculated and the percent glucose excursion was estimated at different duration of treatment compared to vehicle.

[1] = Plasma levels of active GLP-1 and insulin (unpublished observations); assay type: in vivo

Structure (SMILES)	Glucose lowering (glucose excursion, AUC0-120 min vs vehicle) at 8 h (ob/ob mice; OGTT 2 g/kg 8 h after dosing)	Reduction in AUCGlucose at 12 h (ob/ob mice; OGTT 2 g/kg 12 h after dosing) [%]	Augmentation of plasma active GLP-1 [1]	Augmentation of plasma insulin [1]
N[C@@H](CC(=O)N1CCn2c(nnc2C(F)(F)F)C1)Cc1cc(F)c(F)cc1F [sitagliptin]	~ 35%	-23	twofold	twofold
N#C[C@@H]1CCCN1C(=O)CNC12CC3CC(CC(O)(C3)C1)C2 [vildagliptin]			twofold	twofold
